Assay results as given in patent US7186722B2, “2-heteroaryl-3,4-dihydro-2h-pyrrole derivatives and the use thereof as pesticides” (Bayer Cropscience AG, priority 2001, dated 2007).

tested on: caterpillars of the army worm (Spodoptera frugiperda); test: Spodoptera frugiperda Test; type: in vivo; conditions: 500 ppm, cabbage leaves dipped
Description: Spodoptera frugiperda Test
• Solvent: 30 parts by weight of dimethylformamide. • Emulsifier: 1 part by weight of alkylaryl polyglycol ether
To produce a suitable preparation of active compound, 1 part by weight of active compound is mixed with the stated amount of solvent and emulsifier, and the concentrate is diluted with emulsifier-containing water to the desired concentration.
Cabbage leaves (Brassica oleracea) are treated by being dipped into the preparation of active compound of the desired concentration and are populated with caterpillars of the army worm (Spodoptera frugiperda) while the leaves are still moist.
After the desired period of time, the kill in % is determined. 100% means that all caterpillars have been killed; 0% means that none of the caterpillars have been killed.

Row | Structure (SMILES) | Kill rate in % after 7 d [%]
1 | Fc1cccc(F)c1C1=NC(c2cc3sc(-c4ccc(OC(F)(F)F)cc4)cc3s2)CC1 (stereo not drawn) [drawing 91] | 100
2 | Fc1cccc(F)c1C1=NC(c2ccc(Cl)nc2)CC1 (stereo not drawn) [drawing 96] | 100

same assay, conditions: 1000 ppm, cabbage leaves dipped

Row | Structure (SMILES) | Kill rate in % after 7 d [%]
3 | Fc1cccc(F)c1C1=NC(c2ccc(-c3cccc(OC(F)(F)F)c3)s2)CC1 (stereo not drawn) [drawing 92] | 100
4 | Fc1cccc(F)c1C1=NC(c2cc(Br)cs2)CC1 (stereo not drawn) [drawing 93] | 100
5 | Fc1cccc(F)c1C1=NC(c2cc(-c3cccc(OC(F)(F)F)c3)cs2)CC1 (stereo not drawn) [drawing 94] | 100
6 | Fc1cccc(F)c1C1=NC(c2cc(-c3ccc(OC(F)(F)F)cc3)cs2)CC1 (stereo not drawn) [drawing 95] | 100

tested on: larvae of the mustard beetle (Phaedon cochleariae); test: Phaedon Larvae Test; type: in vivo; conditions: 1000 ppm, cabbage leaves dipped
Description: Phaedon Larvae Test • Solvent: 30 parts by weight of dimethylformamide • Emulsifier: 1 part by weight of alkylaryl polyglycol ether To produce a suitable preparation of active compound, 1 part by weight of active compound is mixed with the stated amount of solvent and emulsifier, and the concentrate is diluted with emulsifier-containing water to the desired concentration. Cabbage leaves (Brassica oleracea) are treated by being dipped into the preparation of active compound of the desired concentration and are populated with larvae of the mustard beetle (Phaedon cochleariae) while the leaves are still moist.

Row | Structure (SMILES) | Kill rate in % after 7 d [%]
7 | Cc1ccsc1C1CCC(c2c(F)cccc2F)=N1 (stereo not drawn) [drawing 87] | 100
8 | Fc1cccc(F)c1C1=NC(c2ccc(-c3cccc(OC(F)(F)F)c3)s2)CC1 (stereo not drawn) [drawing 88] | 100
9 | Fc1cccc(F)c1C1=NC(c2cc(-c3ccc(OC(F)(F)F)cc3)cs2)CC1 (stereo not drawn) [drawing 89] | 100

tested on: Meloidogyne incognita; test: Meloidogyne Test; type: in vivo; conditions: 20 ppm, nematicidal action by formation of galls on lettuce roots
Description: • Solvent: 30 parts by weight of dimethylformamide • Emulsifier: 1 part by weight of alkylaryl polyglycol ether
To produce a suitable preparation of active compound, 1 part by weight of active compound is mixed with the stated amount of solvent and emulsifier, and the concentrated is diluted with water to the desired concentration.
Vessels are filled with sand, solution of active compound, Meloidogyne incognita egg/larvae suspension and lettuce seeds. The lettuce seeds germinate and the plants develop. On the roots galls are formed.
After the desired period of time, the nematicidal action is determined in % by the formation of galls. 100% means that no galls have been found; 0% means that the number of galls on the treated plants corresponds to that of the untreated control.

Row | Structure (SMILES) | Kill rate in % after 14 d [%]
10 | Fc1cccc(F)c1C1=NC(c2ccc(-c3cccc(OC(F)(F)F)c3)s2)CC1 (stereo not drawn) [drawing 85] | 98

tested on: not listed separately; test: logP determination by HPLC (reversed-phase C 18), EEC Directive 79/831 Annex V.A8; type: physicochemical; conditions: pH 2.3
Description: The stated logP values were determined in accordance with EEC Directive 79/831 Annex V.A8 by HPLC (High Performance Liquid Chromatography), using a reversed-phase column (C 18). Temperature: 43° C.
In the acidic range, the determination was carried out at pH 2.3 using the mobile phases 0.1% aqueous phosphoric acid and acetonitrile; linear gradient from 10% acetonitrile to 90% acetonitrile.
In the neutral range, the determination was carried out at pH 7.5 using the mobile phases 0.01 molar aqueous phosphate buffer solution and acetonitrile; linear gradient from 10% acetonitrile to 90% acetonitrile.
Calibration was carried out using unbranched alkan-2-ones (having 3 to 16 carbon atoms) with known logP values (determination of the logP values by the retention times using linear interpolation between two successive alkanones).

Row | Structure (SMILES) | chromatographic logP
11 | Fc1cccc(F)c1C1=NC(c2ccc(Cl)nc2)CC1 (stereo not drawn) [Example 9, 2-(6-chloro-3-pyridinyl)-5-(2,6-difluorophenyl)-3,4-dihydro-2H-pyrrole] | 1.93

same assay, conditions: pH 2.3; HPLC, 0.1% aqueous phosphoric acid/acetonitrile; 43° C.; read-out: log P (pH 2.3)

Row | Structure (SMILES) | chromatographic logP
12 | CC(C)(C)OC(=O)NC(CCC(=O)c1c(F)cccc1F)c1cccs1 (stereo not drawn) [II-2] | 4.48
13 | CC(C)(C)OC(=O)NC(CCC(=O)c1c(F)cccc1F)c1sccc1Cl (stereo not drawn) [II-3] | 4.28

same assay, conditions: reversed-phase C18 HPLC column; pH 2.3; HPLC, 0.1% aqueous phosphoric acid/acetonitrile; 43° C.; read-out: log P (pH 2.3)

Row | Structure (SMILES) | chromatographic logP
14 | Fc1cccc(F)c1C1=NC(c2ccc(Br)s2)CC1 (stereo not drawn) [Example 1, 2-(5-bromo-2-thienyl)-5-(2,6-difluorophenyl)-3,4-dihydro-2H-pyrrole] | 3.45
15 | Fc1cccc(F)c1C1=NC(c2cccs2)CC1 (stereo not drawn) [Example 2] | 1.95
16 | Fc1cccc(F)c1C1=NC(c2sccc2Cl)CC1 (stereo not drawn) [Example 3] | 3.34
17 | Cc1ccsc1C1CCC(c2c(F)cccc2F)=N1 (stereo not drawn) [Example 4] | 2.34
18 | Fc1cccc(F)c1C1=NC(c2cc3ccccc3s2)CC1 (stereo not drawn) [Example 5] | 3.11
19 | Fc1cccc(F)c1C1=NC(c2cc(Br)cs2)CC1 (stereo not drawn) [Example 8, 2-(4-bromo-2-thienyl)-5-(2,6-difluorophenyl)-3,4-dihydro-2H-pyrrole] | 3.41
20 | Fc1cccc(F)c1C1=NC(c2ccc(-c3ccc(OC(F)(F)F)cc3)nc2)CC1 (stereo not drawn) [Example 10, 5-[5-(2,6-difluorophenyl)-3,4-dihydro-2H-pyrrol-2-yl]-2-[4-(trifluoromethoxy)phenyl]pyridine] | 3.5
21 | Fc1cccc(F)c1C1=NC(c2ccc(-c3ccc(OC(F)(F)F)cc3)s2)CC1 (stereo not drawn) [Example 11, 5-(2,6-difluorophenyl)-2-{5-[4-(trifluoromethoxy)phenyl]-2-thienyl}-3,4-dihydro-2H-pyrrole] | 5.16
22 | Fc1cccc(F)c1C1=NC(c2ccc(-c3cccc(OC(F)(F)F)c3)s2)CC1 (stereo not drawn) [Example 12, 5-(2,6-difluorophenyl)-2-{5-[3-(trifluoromethoxy)phenyl]-2-thienyl}-3,4-dihydro-2H-pyrrole] | 4.84
23 | Fc1cccc(F)c1C1=NC(c2cc(-c3cccc(OC(F)(F)F)c3)cs2)CC1 (stereo not drawn) [Example 13, 5-(2.6-difluorophenyl)-2-{4-[3-(trifluoromethoxy)phenyl]-2-thienyl}-3,4-dihydro-2H-pyrrole] | 4.08
24 | Fc1cccc(F)c1C1=NC(c2cc(-c3ccc(OC(F)(F)F)cc3)cs2)CC1 (stereo not drawn) [Example 14, 5-(2,6-difluorophenyl)-2-{4-[4-(trifluoromethoxy)phenyl]-2-thienyl}-3,4-dihydro-2H-pyrrole] | 4.66
25 | O=C(/C=C/c1cc(Br)cs1)c1c(F)cccc1F [XVIII-1, 3-(4-bromo-2-thienyl)-1-(2,6-difluorophenyl)-2-propen-1-one] | 3.78
26 | O=C(/C=C/c1ccc(Cl)nc1)c1c(F)cccc1F [XVIII-2, 3-(6-chloro-3-pyridinyl)-1-(2,6-difluorophenyl)-2-propen-1-one] | 2.87

Next, values leading:

Row | chromatographic logP | Structure (SMILES)
27 | 4.29 | CC(C)(C)OC(=O)NC(CCC(=O)c1c(F)cccc1F)c1ccc(Br)s1 (stereo not drawn) [II-1, tert-butyl 1-(5-bromo-2-thienyl)-4-(2,6-difluorophenyl)-4-oxobutylcarbamate]
28 | 4.27 | Cc1ccsc1C(CCC(=O)c1c(F)cccc1F)NC(=O)OC(C)(C)C (stereo not drawn) [II-4]
29 | 4.2 | CC(C)(C)OC(=O)NC(CCC(=O)c1c(F)cccc1F)c1cc2ccccc2s1 (stereo not drawn) [II-5]
30 | 3 | [N-]=[N+]=NC(CCC(=O)c1c(F)cccc1F)c1cc(Br)cs1 (stereo not drawn) [III-1, 4-azido-4-(4-bromo-2-thienyl)-1-(2,6-difluorophenyl)-1-butanone]
31 | 3.33 | [N-]=[N+]=NC(CCC(=O)c1c(F)cccc1F)c1ccc(Cl)nc1 (stereo not drawn) [III-2, 4-azido-4-(6-chloro-3-pyridinyl)-1-(2,6-difluorophenyl)-1-butanone]
32 | 4.78 | [N-]=[N+]=NC(CCC(=O)c1c(F)cccc1F)c1ccc(-c2ccc(OC(F)(F)F)cc2)nc1 (stereo not drawn) [III-3, 4-azido-1-(2,6-difluorophenyl)-4-{6-[4-(trifluoromethoxy)phenyl]-3-pyridinyl}-1-butanone]
33 | 3.03 | CC(C)(C)OC(=O)N1C(=O)CCC1c1ccc(Br)s1 (stereo not drawn) [IX-1, tert-butyl 2-(5-bromo-2-thienyl)-5-oxo-1-pyrrolidinecarboxylate]
34 | 2.39 | CC(C)(C)OC(=O)N1C(=O)CCC1c1cccs1 (stereo not drawn) [IX-2]
35 | 2.65 | Cc1ccsc1C1CCC(=O)N1C(=O)OC(C)(C)C (stereo not drawn) [IX-4]
36 | 3.03 | CC(C)(C)OC(=O)N1C(=O)CCC1c1cc2ccccc2s1 (stereo not drawn) [IX-5]
37 | 1.62 | O=C1CCC(c2ccc(Br)s2)N1 (stereo not drawn) [XI-1, 5-(5-bromo-2-thienyl)-2-pyrrolidinone]
38 | 1.03 | O=C1CCC(c2cccs2)N1 (stereo not drawn) [XI-2]
39 | 1.41 | O=C1CCC(c2sccc2Cl)N1 (stereo not drawn) [XI-3]
40 | 1.33 | Cc1ccsc1C1CCC(=O)N1 (stereo not drawn) [XI-4]
41 | 1.73 | O=C1CCC(c2cc3ccccc3s2)N1 (stereo not drawn) [XI-5]
42 | 3 | O=C(CCC(Cl)c1cc(Br)cs1)c1c(F)cccc1F (stereo not drawn) [XV-1, 4-(4-bromo-2-thienyl)4-chloro-1-(2,6-difluorophenyl)-1-butanone]
43 | 3.37 | O=C(CCC(Cl)c1ccc(Cl)nc1)c1c(F)cccc1F (stereo not drawn) [XV-2, 4-(6-chloro-3-pyridinyl)-4-chloro-1-(2,6-difluorophenyl)-1-butanone]
44 | 4.88 | O=C(CCC(Cl)c1ccc(-c2ccc(OC(F)(F)F)cc2)nc1)c1c(F)cccc1F (stereo not drawn) [XV-3, 4-chloro-1-(2,6-difluorophenyl)4-{6-[4-(trifluoromethoxy)phenyl]-3-pyridinyl}-1-butanone]
45 | 4.14 | O=C(c1c(F)cccc1F)C1CC1c1cc(Br)cs1 (stereo not drawn) [XVII-1, [2-(4-bromo-2-thienyl)cyclopropyl](2,6-difluorophenyl)methanone]
46 | 2.92 | O=C(c1c(F)cccc1F)C1CC1c1ccc(Cl)nc1 (stereo not drawn) [XVII-2, [2-(6-chloro-3-pyridinyl)cyclopropyl](2,6-difluorophenyl)methanone]
47 | 4.4 | O=C(c1c(F)cccc1F)C1CC1c1ccc(-c2ccc(OC(F)(F)F)cc2)nc1 (stereo not drawn) [XVII-3, (2,6-difluorophenyl)(2-{6-[4-(trifluoromethoxy)phenyl]-3-pyridinyl}cyclopropyl)methanone]

same assay, conditions: reversed-phase C18 HPLC column; pH 7.5; HPLC, 0.01 molar aqueous phosphate buffer/acetonitrile; 43° C.; read-out: log P (pH 7.5)

Row | chromatographic logP | Structure (SMILES)
48 | 2.77 | CC(C)(C)OC(=O)N1C(=O)CCC1c1sccc1Cl (stereo not drawn) [IX-3]
